Columns and labels:
KOPT-K1 cells [1] = format: cell-based
KOPT-K1 cells [2] = assay: In vitro drug wash-out assay, cell growth; format: cell-based; conditions: 100nM for 18 hours, then drug-free media
in vivo = conditions: NSG, mouse, plasma, ip, 10 mg/kg
[3] = Cytotoxicity in CD34+ cells from healthy donors; conditions: human, CD34+ cells from cord blood of healthy donors
[4] = Cytotoxicity in peripheral blood mononuclear cells; conditions: human, peripheral blood mononuclear cells (PBMCs)

Cc1nc(Nc2ncc(C(=O)Nc3c(C)cccc3Cl)s2)cc(N2CCN(CCO)CC2)n1 [dasatinib]
effect of lenalidomide on LC50 (KOPT-K1 cells [1]): did not alter | effect of CRBN deletion (CRBN^KO) on cell sensitivity (KOPT-K1 cells [1]; CRBN^KO vs CRBN^WT KOPT-K1, 72 hours): did not alter cell sensitivity | time post drug removal at which cells began to recover (KOPT-K1 cells [2]): 96 h | AUC (in vivo): 1400 ng·h/mL | half-life (in vivo): 55.2 min | CC50 at 72 h [3]: 0.0929 µM | CC50 at 72 h [4]: 0.00281 µM

Nc1cccc2c1CN(C1CCC(=O)NC1=O)C2=O (centres unmarked) [lenalidomide]
effect on T-ALL survival and growth (KOPT-K1 cells [1]; single agent): no effect
